In patent US6486128B1, “Method of using emamectin to treat fish parasites” (Schering-Plough Veterinary Corporation, priority 1999, dated 2002):
Several values for one entry are separate records, joined by “and”; a condition that tells them apart may be missing. Equal values may be shown once.

How the values were obtained:
[1] = tested on: sea lice, Lepeophtheirus salmonis; assay: Dose confirmation study I: efficacy of emamectin benzoate in feed against induced sea lice infestations on Atlantic salmon; type: in vivo; conditions: for Percentage fish mortality: mortality attributed to sea lice damage, includes culled fish
Procedure: (§1) Three studies were carried out at the Institute of Aquaculture Marine Environmental Research Laboratory in Machrihanish, Scotland. Atlantic salmon, Salmo salar L., post-smolts were obtained from a disease free stock and acclimatised at the test facility.
(§2) Fish were held in replicate groups in plastic fiber tanks, each with a volume of 0.54 m^3. Each tank was supplied with natural sea water at ambient temperature (7-14° C.) and salinity (30-35 ppt), at flow rates of approximately 18 l. min^−1. The tanks were fitted with mesh screens over the water outlet to retain uneaten fish pellets. Fish were observed daily for behavior and adverse drug reactions. Fish mortalities and the occurrence of gross sea lice damage were also recorded.
(§3) Sea lice were collected during harvesting on commercial salmon farms on the west coast of Scotland. Egg strings collected from gravid female lice were incubated in sea water at ambient temperature and within a salinity range of 32-35 ppt. Once the hatched larvae reached the copepodite stage, 38-170 copepodites per fish were introduced into each of four replicate tanks of fish and the water supply to each tank was turned off for approximately three hours to allow attachment of copepodites to the fish. This was repeated 4-5 times at intervals of 3-5 days until chalimus stages I, II, III and IV were present. Chalimus numbers were evaluated at day −1 or day −2 pre-treatment, on sub-samples of fish (N=6-9 fish per tank). At this point, fish were infested with pre-adult and adult lice, by adding 5-10 lice per fish to each tank. Water supplies to each tank were turned off for around one hour until all the lice had attached to the fish. Pre-treatment lice numbers were based on a sub-sample of the total population and presented as the mean number of chalimus per fish. Fish were then randomly re-distributed from the four original tanks to each control or treatment tank, as described in the experimental design for each study, and no further infestations were carried out during or after treatment.
(§4) The basal ration was Fulmar™ (BOCM Pauls Ltd.) 3.5 or 5 mm salmon feed pellets. Emamectin benzoate was dissolved in propylene glycol and mixed with fish oil prior to top coating the feed pellets. Control feeds were prepared in the same way with propylene glycol and fish oil. Treatment was administered at nominal dose rates of 0, 25, 50 and 100 μg kg^−1 fish biomass per day, at a feed rate of 0.5% biomass, for a period of seven consecutive days (days 0-6). Actual daily feed consumption was measured in each tank by collecting the uneaten feed pellets approximately thirty minutes after administration and subtracting the number of pellets from the daily ration fed. The mean dose consumed was calculated for each group as follows: [formula] Mean feed consumption (%)×nominal dose rate (μg·kg^−1)=Mean dose consumed (μg·kg^−1)
(§5) Evaluation of sea lice numbers was carried out at 7, 14 and 21 days from the start of treatment. Fish were anaesthetised in 40 mg·l^−1 ethyl-P-aminobenzoate (benzocaine) and each fish examined under a low power microscope. Lice were identified as chalimus I-IV, pre-adult I or II and adult stages. Pre-adults and adult lice were additionally identified as males or females. The numbers of each developmental stage were recorded. Any lice which detached in the anaesthetic solution were included in the counts and reattached to the fish after transferring them to fresh seawater. The fish were returned to the holding tanks after sampling and the same fish were evaluated at days 7, 14 and 21.
The water temperature was 12-14° C. and salinity was 33-35 ppt. Pre-treatment, mean fish weights were 224 g (±43 g S.D). Emamectin benzoate was administered at nominal daily dose rates of 0, 25, and 50 μg kg^−1 biomass. There were three replicate tanks per treatment with 15 fish per tank. […]

[2] = tested on: sea lice, Lepeophtheirus salmonis; assay: Dose confirmation study II: efficacy of emamectin benzoate in feed against induced sea lice infestations on Atlantic salmon; type: in vivo
Procedure: as §1, §2, §3, §4, §5
The water temperature was 9-12° C. and salinity was 30-34 ppt. Pre-treatment, mean fish weights were 418.2 g (±49 g S.D). Emamectin benzoate was administered at se rates of 0 and 50 μg kg^−1 biomass. There were three replicate tanks per treatment with a sample size of 15-16 fish per tank. […]

[3] = tested on: L. salmonis; assay: All three studies summarised: oral treatment of Atlantic salmon against L. salmonis; type: in vivo, Lepeophtheirus salmonis
Procedure: as §1, §2, §3, §4, §5
Results were summarised as chalimus (chalimus stages I-IV), motile lice pre-adult and adult stages) and total lice (chalimus and motile stages combined). Data on the number of lice per fish were subjected to F-tests for homogeneity of variances and a correlation test to examine the normality of distribution. Fish weights and pre-treatment lice counts were tested by one-way ANOVA. […]

[4] = Daily observation of fish for behavior, adverse drug reactions and mortalities (three studies); type: in vivo, Atlantic salmon, Salmo salar L.; conditions: any of the doses tested (25, 50, 100 μg kg^−1 per day, 7 days in feed)
Procedure: as §2

[5] = nominal dose 25 μg·kg^−1/day (consumed 20.2) in feed Day 0-6, Day 7
[6] = nominal dose 25 μg·kg^−1/day (consumed 20.2) in feed Day 0-6, day 21
[7] = nominal dose 25 μg·kg^−1/day in feed Day 0-6, Day 14
[8] = nominal dose 25 μg·kg^−1/day in feed Day 0-6, Day 21
[9] = nominal dose 50 μg·kg^−1/day (consumed 44.3) in feed Day 0-6, Day 7
[10] = nominal dose 50 μg·kg^−1/day (consumed 44.3) in feed Day 0-6, day 21
[11] = nominal dose 50 μg·kg^−1/day in feed Day 0-6, Day 14
[12] = nominal dose 50 μg·kg^−1/day in feed Day 0-6, Day 21
[13] = nominal dose 50 μg·kg^−1/day (consumed 45.7) in feed Day 0-6, Day 7
[14] = nominal dose 50 μg·kg^−1/day (consumed 45.7) in feed Day 0-6, day 21
[15] = dose rate 50 μg kg^−1, three studies

With emamectin benzoate as the substance, how does the “% Reduction relative to controls (Total lice)” value [1, 5] read?
The value was 43.8%.

What about the “Mean Total lice (± S.D)” value [1, 5] of the same substance?
The value was 34.2 ± 15.8.

And the “Mean chalimus (± S.D)” value [1, 5]?
The value was 1.8 ± 1.7.

What about the “Mean motiles (± S.D)” value [1, 5] of the same substance?
Its value is 32.4 ± 15.4.

What about the “% Reduction relative to controls (Total lice)” value ([1]; nominal dose 25 μg·kg^−1/day (consumed 20.2) in feed Day 0-6, Day 21) of the same substance?
The value was 82% and 81.9%.

And the “Percentage of fish with no lice present (chalimus or motiles)” value [1, 6]?
Its value is 3%.

And the “Percentage of fish with no motile lice present” value [1, 6]?
Its value is 6.1%.

And the “% Reduction relative to controls (Total lice)” value [1, 7]?
Its value is 76.0%.

And the “Mean Total lice (± S.D)” value [1, 7]?
The value was 9.8 ± 4.4.

What about the “Mean chalimus (± S.D)” value [1, 7] of the same substance?
Its value is 0.30.

What about the “Mean motiles (± S.D)” value [1, 7] of the same substance?
Its value is 9.5 ± 4.4.

And the “Mean Total lice (± S.D)” value [1, 8]?
Its value is 4.9 and 4.9 ± 3.1.

What about the “Mean chalimus (± S.D)” value [1, 8] of the same substance?
Its value is 0.

What about the “Mean motiles (± S.D)” value [1, 8] of the same substance?
Its value is 4.9 ± 3.1.

What about the Percentage fish mortality ([1]; nominal dose 25 μg·kg^−1/day) of the same substance?
The Percentage fish mortality was 31%.

What about the “% Reduction relative to controls (Total lice)” value [1, 9] of the same substance?
Its value is 53.8%.

What about the “Mean Total lice (± S.D)” value [1, 9] of the same substance?
Its value is 28.1 ± 13.1.

What about the “Mean chalimus (± S.D)” value [1, 9] of the same substance?
Its value is 3.2 ± 2.2.

What about the “Mean motiles (± S.D)” value [1, 9] of the same substance?
The value was 24.9 ± 13.2.

What about the “% Reduction relative to controls (Total lice)” value ([1]; nominal dose 50 μg·kg^−1/day (consumed 44.3) in feed Day 0-6, Day 21) of the same substance?
Its value is 94% and 94.3%.

And the “Percentage of fish with no lice present (chalimus or motiles)” value [1, 10]?
The value was 28.6%.

And the “Percentage of fish with no motile lice present” value [1, 10]?
The value was 28.6%.

And the “% Reduction relative to controls (Total lice)” value [1, 11]?
Its value is 88.0%.

And the “Mean Total lice (± S.D)” value [1, 11]?
The value was 4.9 ± 2.7.

And the “Mean chalimus (± S.D)” value [1, 11]?
The value was 0.6.

What about the “Mean motiles (± S.D)” value [1, 11] of the same substance?
The value was 4.3 ± 2.6.

What about the “Mean Total lice (± S.D)” value [1, 12] of the same substance?
Its value is 1.6 and 1.6 ± 1.3.

And the “Mean chalimus (± S.D)” value [1, 12]?
The value was 0.

And the “Mean motiles (± S.D)” value [1, 12]?
The value was 1.6 ± 1.4.

What about the Percentage fish mortality ([1]; nominal dose 50 μg·kg^−1/day) of the same substance?
The Percentage fish mortality was 27%.

What about the “reduction of total mean numbers of lice compared to the control groups” value ([1]; treated groups (25 and 50 μg kg^−1), day 7) of the same substance?
The value was 44-54%.

And the “total lice numbers lower than in the control groups” value ([1]; treated groups (25 and 50 μg kg^−1), day 21)?
Its value is 82-94%.

What about the “cranial lesions resulting from sea lice activity” value ([2]; 50 μg kg^−1 groups, by day 21 (21% of control fish had lesions)) of the same substance?
The value was “No cranial lesions”.

And the “% Reduction relative to controls (Total lice)” value [2, 13]?
The value was 46% and 45.9%.

And the “Mean Total lice (± S.D)” value [2, 13]?
Its value is 40.5 ± 12.2.

And the “Mean chalimus (± S.D)” value [2, 13]?
The value was 30.0 ± 11.8.

What about the “Mean motiles (± S.D)” value [2, 13] of the same substance?
Its value is 10.5 ± 8.1.

And the “% Reduction relative to controls (Total lice)” value ([2]; nominal dose 50 μg·kg^−1/day (consumed 45.7) in feed Day 0-6, Day 21)?
The value was 95% and 94.6%.

And the “Percentage of fish with no lice present (chalimus or motiles)” value [2, 14]?
Its value is 27%.

What about the “Percentage of fish with no motile lice present” value [2, 14] of the same substance?
Its value is 66% and 66.3%.

What about the “% Reduction relative to controls (Total lice)” value [2, 11] of the same substance?
The value was 70.7%.

And the “Mean Total lice (± S.D)” value [2, 11]?
The value was 14.7 ± 5.9.

And the “Mean chalimus (± S.D)” value [2, 11]?
The value was 12.7 ± 5.7.

And the “Mean motiles (± S.D)” value [2, 11]?
Its value is 2.0 ± 3.2.

What about the “Mean Total lice (± S.D)” value [2, 12] of the same substance?
The value was 2.1 and 2.1 ± 2.1.

What about the “Mean chalimus (± S.D)” value [2, 12] of the same substance?
Its value is 1.5 ± 1.7.

And the “Mean motiles (± S.D)” value [2, 12]?
Its value is 0.6 and 0.6 ± 1.1.

And the Percentage fish mortality ([2]; nominal dose 50 μg·kg^−1/day, mortality figures include culled fish)?
The Percentage fish mortality was 0%.

And the “reduction of motile lice numbers” value ([3]; 50 μg kg^−1, day 7 from the start of medication, three studies)?
Its value is 58-80%.

What about the “Percentage of fish with no motile lice present” value [3, 15] of the same substance?
The value was at most 87%.

What about the “percentage of fish with no lice present of any stage” value [3, 15] of the same substance?
Its value is 20-30%.

And the “reductions in sea lice numbers consistently achieved” value [3, 15]?
The value was 94-95%.

What about the “efficacy against the immature chalimus stages” value ([3]; oral treatment of Atlantic salmon) of the same substance?
The value was “highly effective”.

And the “efficacy against the motile and chalimus stages of L. salmonis” value ([3]; oral treatment of Atlantic salmon, all three studies)?
The value was “very good efficacy”.

And the “adverse effects or fish mortality attributed to treatment” value [4]?
Its value is “No adverse effects or fish mortality”.
